Source: paper PMC10999543, “Identification of kinase modulators as host-directed therapeutics against intracellular methicillin-resistant Staphylococcus aureus” (Frontiers in Cellular and Infection Microbiology, 2024)
Where two headings read alike, the source gives them in different places.

Legend:
HeLa cells = assay: Compound screen by flow cytometry: HeLa cell count as surrogate readout of cell viability (z-scoreHeLa); type: cell-based, human; details: for cell count rep 1 / cell count rep 2 / cell count rep 3 / z-scoreHeLa mean / z-scoreHeLa rep 1 / z-scoreHeLa rep 2 / z-scoreHeLa rep 3: HeLa cell count; for cell count rep 1 / z-scoreHeLa rep 1: replicate 1; for cell count rep 2 / z-scoreHeLa rep 2: replicate 2; for cell count rep 3 / z-scoreHeLa rep 3: replicate 3; for z-scoreHeLa mean: mean of 3 replicates; as to all read-outs here: test concentration or dose not given here
In short: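 The viability surrogate was the count of fixed HeLa cells by flow cytometry, converted to z-scores against DMSO controls with values deviating two-fold excluded. Before counting, cells had been infected with MRSA for 1 h and cleared of extracellular bacteria with gentamicin. They were then exposed overnight to kinase inhibitors in triplicate.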

HER2 = test system: HER2; parameters: method as in Elkins et al., 2016; details: PKIS1, Caliper assay, ref Elkins et al., 2016; cited from earlier work
intracellular MRSA = type: cell-based, Staphylococcus aureus; details: for %GFP+ rep 1 / %GFP+ rep 2 / %GFP+ rep 3 / z-scoreMRSA+ mean / z-scoreMRSA+ rep 1 / z-scoreMRSA+ rep 2 / z-scoreMRSA+ rep 3: MRSA-infected HeLa cells; for %GFP+ rep 1 / z-scoreMRSA+ rep 1: replicate 1; for %GFP+ rep 2 / z-scoreMRSA+ rep 2: replicate 2; for %GFP+ rep 3 / z-scoreMRSA+ rep 3: replicate 3; for z-scoreMRSA+ mean: mean of 3 replicates
In short: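 Values are z-scores: GFP-positive HeLa percentage and event count per well against plate statistics, minus the mean DMSO z-score. Wells deviating two-fold from controls were left out of plate means. Infection was at a mean MOI of 6.8, with an overnight compound exposure.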

HER4 = test system: HER4; parameters: method as in Elkins et al., 2016; details: PKIS1, Caliper assay, ref Elkins et al., 2016; cited from earlier work
EGFR = test system: EGFR; parameters: method as in Elkins et al., 2016; details: PKIS1, Caliper assay, ref Elkins et al., 2016; cited from earlier work
For %GFP+ rep 1 in this document: test concentration or dose not given here.
For %GFP+ rep 2 in this document: test concentration or dose not given here.
For %GFP+ rep 3 in this document: test concentration or dose not given here.
For effect in this document: test concentration or dose not given here.
For z-scoreMRSA+ mean in this document: test concentration or dose not given here.
For z-scoreMRSA+ rep 1 in this document: test concentration or dose not given here.
For z-scoreMRSA+ rep 2 in this document: test concentration or dose not given here.
For z-scoreMRSA+ rep 3 in this document: test concentration or dose not given here.

## [O-][S+]1CCN(Cc2ccc(-c3ccc4ncnc(Nc5ccc(OCc6cccc(F)c6)c(Cl)c5)c4c3)o2)CC1 [GW576609A]
HeLa cells; PKIS compound screen raw data
  cell count rep 1: 27921
  cell count rep 2: 36007
  cell count rep 3: 40876
HeLa cells; PKIS compound screen
  z-scoreHeLa mean: 0.49
  z-scoreHeLa rep 1: 1.18
  z-scoreHeLa rep 2: 0.23
  z-scoreHeLa rep 3: 0.0554
HeLa cells; PKIS compound screen, Yes/No call on z-scoreHeLa
  cell death: No
HER2
  % inhibition at 1 µM HER2: 80%
Intracellular MRSA; PKIS compound screen raw data
  %GFP+ rep 1: 13.3%
  %GFP+ rep 2: 14.3%
  %GFP+ rep 3: 14.3%
Intracellular MRSA; PKIS compound screen
  z-scoreMRSA+ mean: -1.46
  z-scoreMRSA+ rep 1: -1.45
  z-scoreMRSA+ rep 2: -1.27
  z-scoreMRSA+ rep 3: -1.67
Intracellular MRSA; PKIS compound screen, Yes/No call (effect without cell death)
  hit: No
Intracellular MRSA; PKIS compound screen, Yes/No call on z-scoreMRSA+
  effect: No
HER4
  % inhibition at 1 µM HER4: 91%
EGFR
  % inhibition at 1 µM EGFR: 84%

## O=S(=O)(CCOCc1ccc(-c2ccc3ncnc(Nc4ccc(OCc5cccc(F)c5)c(Cl)c4)c3c2)o1)c1ccccc1 [GW615311X]
HeLa cells; PKIS compounds raw data
  cell count rep 1: 4217
  cell count rep 2: 4665
  cell count rep 3: 7934
HeLa cells; Yes/No call from z-scoreHeLa
  cell death: No
HeLa cells; compound screen
  z-scoreHeLa mean: 0.09
  z-scoreHeLa rep 1: -0.51
  z-scoreHeLa rep 2: 0.30
  z-scoreHeLa rep 3: 0.47
HER2
  % inhibition at 1 µM HER2: 70%
Intracellular MRSA; PKIS compounds raw data
  %GFP+ rep 1: 14.3%
  %GFP+ rep 2: 12.7%
  %GFP+ rep 3: 13.9%
Intracellular MRSA; Yes/No call from z-scoreMRSA+
  effect: No
Intracellular MRSA; Yes/No: effect without cell death
  hit: No
Intracellular MRSA; compound screen
  z-scoreMRSA+ mean: -0.16
  z-scoreMRSA+ rep 1: 0.36
  z-scoreMRSA+ rep 2: -0.27
  z-scoreMRSA+ rep 3: -0.59
HER4
  % inhibition at 1 µM HER4: 73%
EGFR
  % inhibition at 1 µM EGFR: 85%
